This passage reports IC50 results from patent US10870662B2, “Alpha-amino pateamine A derivatives and methods for treating chronic lymphocytic leukemia” (The Texas A&M University System, priority 2015, dated 2020).

Like-named read-outs stand apart in the source and are kept apart here.

Data set [1] concerns chronic lymphocytic leukemia (CLL) cells. Description: CLL cell killing assay (annexin V / propidium iodide flow cytometry, 24 h). The data set is classed as cell-based, human. As to conditions: primary CLL cells. The protocol:
Biological Activity of 2-Amino Pateamine Derivatives Peripheral blood from the CLL patients were collected in heparin vacutainer tubes and centrifuged at 1500 rpm for 15 min to separate the plasma. The plasma (upper layer) was removed and saved for cell culture. The lower layer was diluted with phosphate-buffered saline (PBS), and the mononuclear cells were isolated by Ficoll density-gradient centrifugation. The isolated CLL cells were cultured at 1×10^7 cells/mL in RPMI 1640 medium containing 10% of fetal bovine serum, 10% autologous plasma, or 50% autologous plasma. Cell death in CLL lymphocytes was evaluated by flow cytometry analysis using annexin V and propidium iodide (PI) double staining. After incubation with increasing concentrations of PatA analogs for 24 hours, CLL cells (1×10^6 cells) were stained in 100 μL binding buffer with 5 μL annexin-Cy5, and incubated for 15 minutes in dark at room temperature. After staining, 300 μL binding buffer with 5 μL of 50 μg/mL propidium iodide were added to each tube. Samples were analyzed immediately by flow cytometer. Cells stained positive for either annexin V or PI were considered dead cells. The IC50 values of CLL killing were determined by non-linear fitting of the survival curve by the GraphPad Prism software.
For orientation: Flow cytometry measures light scatter and fluorescence of single cells or particles in a stream.

Data set [2] concerns P388 murine leukemia cells. The following applies: read-out: IC50, cytotoxic activity against P388 murine leukemia cells; cited from earlier work.
The mark [3] stands for this setting: CLL cell, RPMI 1640 with 10% autologous (human) plasma, read-out: IC50 CLL Assay, 10% plasma.
Setting [4] is: Homo sapiens, CLL cell, RPMI 1640 with 10% fetal bovine serum, read-out: IC50 CLL Assay, 10% FBS.
Setting [5] is: CLL cell, RPMI 1640 with 50% autologous (human) plasma, read-out: IC50 CLL Assay, 50% plasma.
Setting [6] is: RPMI 1640 with 10% autologous (human) plasma, read-out: IC50 CLL Assay, 10% plasma.
[7] abbreviates: RPMI 1640 with 10% fetal bovine serum, read-out: IC50 CLL Assay, 10% FBS.

For the compound `C/C(Br)=C\[C@@H]1Cc2nc(cs2)CCC[C@H](NC(=O)C(F)(F)F)C(=O)O[C@@H](C)C/C(C)=C/C=C\C(=O)O1` [MZ569b, N-((1^2Z,3S,6Z,8E,11S,14S)-3-((E)-2-Bromoprop-1-en-1-yl)-9,11-dimethyl-5,13-dioxo-4,12-dioxa-1 (2,4)-thiazolacycloheptadecaphane-6,8-dien-1^4-yl)-2,2,2-trifluoroacetamide], the IC50 in data set [1] (setting [3]) and in data set [1] (setting [4]) was over 10000 nM each time.
Regarding `CC(/C=C/C(C)=C/[C@@H]1Cc2nc(cs2)[C@@H](C)C[C@@H](N)CC(=O)O[C@@H](C)C/C(C)=C/C=C\C(=O)O1)=C\CN(C)C` [PatA, Pateamine A], the IC50 (as a rule, the concentration that gives 50% inhibition) in data set [1] (setting [3]) is 160 nM; in data set [1] (setting [5]) it was 470 nM; in data set [1] (setting [4]), 150 nM; in data set [2] it was 0.27 nM.
For `CC(Br)=CC1Cc2nc(cs2)CCCC(NC(=O)OC(C)(C)C(Cl)(Cl)Cl)C(=O)OC(C)CC(C)=CC=CC(=O)O1` [MZ569a, 1,1,1-Trichloro-2-methylpropan-2-yl ((1^2Z,3S,6Z,8E,11S,14S)-3-((E)-2-bromoprop-1-en-1-yl)-9,11-dimethyl-5,13-dioxo-4,12-dioxa-1(2,4)-thiazolacycloheptadecaphane-6,8-dien-1^4-yl) carbamate], the IC50 in data set [1] (setting [6]) and in data set [1] (setting [7]) was over 10000 nM each time.
As for `CC(/C=C/C(C)=C/[C@@H]1Cc2nc(cs2)CCC[C@H](NC(=O)OC(C)(C)C)C(=O)O[C@@H](C)C/C(C)=C/C=C\C(=O)O1)=C\CN(C)C` [MZ578, tert-Butyl ((1^2Z,3S,6Z,8E,11S,14S)-3-((1E,3E,5E)-7-(dimethylamino)-2,5-dimethylhepta-1,3,5-trien-1-yl)-9,11-dimethyl-5,13-dioxo-4,12-dioxa-1(2,4)-thiazolacycloheptadecaphane-6,8-dien-14-yl) carbamate], the IC50 in data set [1] (setting [3]) is 2010 nM; in data set [1] (setting [5]) it was 8120 nM; in data set [1] (setting [4]), 830 nM.
`CC(/C=C/C(C)=C/[C@@H]1Cc2nc(cs2)CCC[C@H](NC(=O)C(F)(F)F)C(=O)O[C@@H](C)C/C(C)=C/C=C\C(=O)O1)=C\CN(C)C` [MZ579, N-((1^2Z,3S,6Z,8E,11S,14S)-3-((1E,3E,5E)-7-(dimethylamino)-2,5-dimethylhepta-1,3,5-trien-1-yl)-9,11-dimethyl-5,13-dioxo-4,12-dioxa-1(2,4)-thiazolacycloheptadecaphane-6,8-dien-14-yl)-2,2,2-trifluoroacetamide]: the IC50 in data set [1] (setting [3]) turned out to be 1790 nM; in data set [1] (setting [5]) it was 7180 nM; in data set [1] (setting [4]), 550 nM.
For the compound `CC(/C=C/C(C)=C/[C@@H]1Cc2nc(cs2)CCC[C@H](NS(C)(=O)=O)C(=O)O[C@@H](C)C/C(C)=C/C=C\C(=O)O1)=C\CN(C)C` [MZ624, N-((1^2Z,3S,6Z,8E,11 S,14S)-3-((1E,3E,5E)-7-(dimethylamino)-2,5-dimethylhepta-1,3,5-trien-1-yl)-9,11-dimethyl-5,13-dioxo-4,12-dioxa-1(2,4)-thiazolacycloheptadecaphane-6,8-dien-14-yl) methanesulfonamide], the values for the IC50 in data set [1] (setting [3]) and in data set [1] (setting [4]) were 650 nM and 370 nM, respectively.
On to `CC(C=CC(C)=CC1Cc2nc(cs2)CCCC(NC(=O)OC(C)(C)C(Cl)(Cl)Cl)C(=O)OC(C)CC(C)=CC=CC(=O)O1)=CCN(C)C` [MZ576, 1,1,1-Trichloro-2-methylpropan-2-yl((1^2Z,3S,6Z,8E,11 S,14S)-3-((1E,3E,5E)-7-(dimethylamino)-2,5-dimethylhepta-1,3,5-trien-1-yl)-9,11-dimethyl-5,13-dioxo-4,12-dioxa-1 (2,4)-thiazolacycloheptadecaphane-6,8-dien-14-yl)carbamate], for which the IC50 in data set [1] (setting [6]) turned out to be 6690 nM; in data set [1] (setting [7]) it was 3200 nM.
Take “1,1,1-Trichloro-2-methylpropan-2-yl ((1^2Z,3S,6Z,8E,11S,14R)-3-((1E,3E,5E)-7-(dimethylamino)-2,5-dimethylhepta-1,3,5-trien-1-yl)-9,11-dimethyl-5,13-dioxo-4,12-dioxa-1 (2,4)-thiazol acycloheptadecaphane-6,8-dien-14-yl)carbamate [MZ756]”: the figures for the half-inhibitory concentration (IC50) in data set [1] (setting [6]) and in data set [1] (setting [7]) were 5610 nM and 1890 nM, respectively.
For `C/C(Br)=C\[C@@H]1Cc2nc(cs2)CCC[C@H](NC(=O)OC(C)(C)C)C(=O)O[C@@H](C)C/C(C)=C/C=C\C(=O)O1` [MZ554, tert-Butyl-((1^2Z,3S,6Z,8E,11S,14S)-3-((E)-2-bromoprop-1-en-1-yl)-9,11-dimethyl-5,13-dioxo-4,12-dioxa-1(2,4)-thiazolacycloheptadecaphane-6,8-dien-14-yl)carbamate], the IC50 in data set [1] (setting [3]) and in data set [1] (setting [4]) was over 10000 nM throughout.
As for `CC(=O)N[C@@H]1CCCc2csc(n2)C[C@@H](/C=C(C)/C=C/C(C)=C/CN(C)C)OC(=O)/C=C\C=C(/C)C[C@H](C)OC1=O` [MZ757, N-((1^2Z,3S,6Z,8E,11S,14R)-3-((1E,3E,5E)-7-(dimethylamino)-2,5-dimethylhepta-1,3,5-trien-1-yl)-9,11-dimethyl-5,13-dioxo-4,12-dioxa-1(2,4)-thiazolacycloheptadecaphane-6,8-dien-14-yl) acetamide], the values for the IC50 in data set [1] (setting [3]) and in data set [1] (setting [4]) were 450 nM and under 50 nM, respectively.
The like results for `CC(=O)N[C@H]1CCCc2csc(n2)C[C@@H](/C=C(C)/C=C/C(C)=C/CN(C)C)OC(=O)/C=C\C=C(/C)C[C@H](C)OC1=O` [MZ623, N-((1^2Z,3S,6Z,8E,11S,14S)-3-((1E,3E,5E)-7-(dimethylamino)-2,5-dimethylhepta-1,3,5-trien-1-yl)-9,11-dimethyl-5,13-dioxo-4,12-dioxa-1(2,4)-thiazolacycloheptadecaphane-6,8-dien-14-yl) acetamide] were, in that order, 460 nM and 310 nM.
In the case of `CC(/C=C/C(C)=C/[C@@H]1Cc2nc(cs2)CCC[C@H](N)C(=O)O[C@@H](C)C/C(C)=C/C=C\C(=O)O1)=C\CN(C)C` [MZ577, (12Z,3S,6Z,8E,11S,14S)-14-Amino-3-((1E,3E,5E)-7-(dimethylamino)-2,5-dimethylhepta-1,3,5-trien-1-yl)-9,11-dimethyl-4,12-dioxa-1(2,4)-thiazolacycloheptadecaphane-6,8-diene-5,13-dione], the figures for the IC50 in data set [1] (setting [3]) and in data set [1] (setting [4]) were 6360 nM and 3010 nM, respectively.
